The assay addresses C. elegans (N2) complex I (NADH:ubiquinone oxidoreductase) (Caenorhabditis elegans, UniProt P24887+Q93873+Q94360). Description: biochemical. It is filed as biochemical. The method, boiled down: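 Complex I rate: initial linear slope of A600 over 15 min, expressed as percent of solvent control. Triple freeze-thawed mitochondria (0.2 mg/mL) in KPi pH 7.5, BSA 3 mg/mL, NADH 80 μM, decylubiquinone 60 μM, DCIP 160 μM, antimycin A, KCN.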

“And” between values parts separate entries of the source, which are not always exact repeats. Equal values may be shown once. Read-outs that look alike come from different tables or passages of the source.

Sequence of C. elegans (N2) complex I (NADH:ubiquinone oxidoreductase) (Q94360 17-199): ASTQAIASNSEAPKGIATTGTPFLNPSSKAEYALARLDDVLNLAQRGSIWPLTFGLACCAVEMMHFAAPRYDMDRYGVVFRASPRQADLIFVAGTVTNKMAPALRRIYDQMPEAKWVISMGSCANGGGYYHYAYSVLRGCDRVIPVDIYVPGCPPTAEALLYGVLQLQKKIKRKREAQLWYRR
Sequence of C. elegans (N2) complex I (NADH:ubiquinone oxidoreductase) (P24887 whole entry): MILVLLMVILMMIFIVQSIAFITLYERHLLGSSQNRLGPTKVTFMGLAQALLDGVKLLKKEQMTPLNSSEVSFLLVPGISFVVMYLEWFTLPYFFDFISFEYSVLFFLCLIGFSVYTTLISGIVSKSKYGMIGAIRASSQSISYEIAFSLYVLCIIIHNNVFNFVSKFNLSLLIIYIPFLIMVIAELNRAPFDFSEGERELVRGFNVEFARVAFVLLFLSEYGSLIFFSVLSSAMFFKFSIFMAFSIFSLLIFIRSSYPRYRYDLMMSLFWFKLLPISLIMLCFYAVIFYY
Sequence of C. elegans (N2) complex I (NADH:ubiquinone oxidoreductase) (Q93873 31-482): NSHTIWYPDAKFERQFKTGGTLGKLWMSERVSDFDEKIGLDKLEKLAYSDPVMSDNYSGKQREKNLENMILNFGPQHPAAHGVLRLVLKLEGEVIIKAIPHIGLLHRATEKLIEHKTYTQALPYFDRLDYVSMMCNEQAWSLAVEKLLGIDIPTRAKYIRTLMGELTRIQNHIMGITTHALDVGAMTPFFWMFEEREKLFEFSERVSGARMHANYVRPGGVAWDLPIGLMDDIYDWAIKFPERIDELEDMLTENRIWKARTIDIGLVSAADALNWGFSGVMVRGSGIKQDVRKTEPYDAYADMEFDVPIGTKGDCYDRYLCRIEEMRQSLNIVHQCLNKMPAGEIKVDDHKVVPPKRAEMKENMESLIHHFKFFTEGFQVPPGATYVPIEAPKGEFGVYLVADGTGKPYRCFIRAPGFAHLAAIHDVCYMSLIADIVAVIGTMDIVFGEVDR

As to `O=C(NCCc1ccc(Cl)cc1)c1ccccc1C(F)(F)F` [Wact-11], for the setting “100 µM compound, relative to solvent control, mean (SEM)”, the “% Activity Complex I” value is recorded as 84.83 (1.45) %. The “CI Activity” value (100 μM inhibitor, in vitro activity relative to solvent control, N2 C. elegans mitochondria, Mean) was 84.830%. For the same compound, under “100 μM of NPD compound, C. elegans mitochondria, individual biological replicates”, the “Percent in vitro activity, Complex I (single replicate Rep1-Rep4)” value is 83.274% and 93.104% and 79.669%. Further, the “Percent in vitro activity, Complex I (Mean)” value (100 μM of NPD compound, C. elegans mitochondria, mean of four biological replicates) turned out to be 84.830%.
`COC(=O)Nc1nc2ccc(C(=O)c3ccccc3)cc2[nH]1` [mebendazole, reference compound]: where the note is “0.125 µM, wild-type C. elegans mitochondria, mean of replicates, read-out: percent (%) in vitro complex I activity relative to solvent control”, the remaining activity at 0.125 µM was found to be 104%. In addition, the “percent (%) in vitro complex I activity relative to solvent control” value runs as follows: (0.125 µM, wild-type C. elegans mitochondria, single replicate) 95.514% and 94.187% and 106.525% and 121.019%; (0.313 µM, wild-type C. elegans mitochondria, single replicate) 96.314% and 108.975% and 110.715%; (0.625 µM, wild-type C. elegans mitochondria, single replicate) 110.023% and 108.944%; (1.5 µM, wild-type C. elegans mitochondria, single replicate) 91.749% and 101.813% and 107.753%; (3 µM, wild-type C. elegans mitochondria, single replicate) 97.513% and 112.361% and 102.837%; (15 µM, wild-type C. elegans mitochondria, single replicate) 94.944% and 106.604% and 105.394%. Further, the “percent (%) in vitro complex I activity relative to solvent control” value reads like this: (37.5 µM, wild-type C. elegans mitochondria, single replicate) 90.732% and 104.066% and 100.084%; (75 µM, wild-type C. elegans mitochondria, single replicate) 90.802% and 93.867% and 91.631%. The remaining activity at 0.313 µM is, setting by setting: (0.313 µM, wild-type C. elegans mitochondria, mean of replicates, read-out: percent (%) in vitro complex I activity relative to solvent control) 102%; (0.313 µM, wild-type C. elegans mitochondria, single replicate, read-out: percent (%) in vitro complex I activity relative to solvent control) 92.7%. For the same compound, the remaining activity at 0.625 µM was 105% (0.625 µM, wild-type C. elegans mitochondria, mean of replicates, read-out: percent (%) in vitro complex I activity relative to solvent control) and 100% (0.625 µM, wild-type C. elegans mitochondria, single replicate, read-out: percent (%) in vitro complex I activity relative to solvent control). The remaining activity at 1.5 µM was 101% (1.5 µM, wild-type C. elegans mitochondria, mean of replicates, read-out: percent (%) in vitro complex I activity relative to solvent control) and 101% (1.5 µM, wild-type C. elegans mitochondria, single replicate, read-out: percent (%) in vitro complex I activity relative to solvent control). Further, the remaining activity at 3 µM amounted to 104% (3 µM, wild-type C. elegans mitochondria, mean of replicates, read-out: percent (%) in vitro complex I activity relative to solvent control) and 104% (3 µM, wild-type C. elegans mitochondria, single replicate, read-out: percent (%) in vitro complex I activity relative to solvent control). Also, the remaining activity at 15 µM amounted to 102% (15 µM, wild-type C. elegans mitochondria, mean of replicates, read-out: percent (%) in vitro complex I activity relative to solvent control) and 102% (15 µM, wild-type C. elegans mitochondria, single replicate, read-out: percent (%) in vitro complex I activity relative to solvent control). Further, the remaining activity at 37.5 µM stood at 97.7% (37.5 µM, wild-type C. elegans mitochondria, mean of replicates, read-out: percent (%) in vitro complex I activity relative to solvent control) and 95.9% (37.5 µM, wild-type C. elegans mitochondria, single replicate, read-out: percent (%) in vitro complex I activity relative to solvent control). Further, the remaining activity at 75 µM runs as follows: (75 µM, wild-type C. elegans mitochondria, mean of replicates, read-out: percent (%) in vitro complex I activity relative to solvent control) 91.3%; (75 µM, wild-type C. elegans mitochondria, single replicate, read-out: percent (%) in vitro complex I activity relative to solvent control) 88.8%.

The record behind these values is publication PMC11079024, “Identification of a family of species-selective complex I inhibitors as potential anthelmintics” (Nature Communications, 2024).
